# System: Mycobacterium tuberculosis variant bovis BCG
# Experiment: microbe, parasite or virus in culture
# Format: functional
row,Compound,MIC90 [µM]
1,Fc1cccc(Sc2nccc(N3CCNCC3)n2)c1,6
2,C=CCNCCS(=O)(=O)c1cccc(Nc2ccc(-c3ccsc3)cn2)c1,6
3,Clc1ccc(OCc2noc(CC3CCN(CCOCc4ccccc4)C3)n2)cc1 (stereo unspecified),6
4,COc1cc(NC(=O)c2sc(-c3ccc(Cl)cc3)cc2/N=C2/CCCCN2C)ccc1OCCN1CCCC1,6
5,COCCN(C)Cc1ccc(-c2cc(-c3c[nH]nc3-c3cccc(C)n3)ccn2)cc1,6
6,O=C(CCC1CCCCC1)Nc1cccc(-c2nnc(-c3ccco3)o2)c1,9.2
7,CCOc1ccc(C=C(C(=O)NCc2ccc(F)cc2)c2nc3ccccc3[nH]2)cc1,6.1
8,Cc1cc(Oc2ccc(-n3ccnc3)cc2)nc(N2CCN[C@@H](Cc3ccccc3)C2)n1,6.1
9,Cc1cc2nc(C)n(CCCOc3ccccc3)c2cc1C,6.1
10,Cc1cccc(-c2noc(CNC(=O)c3ccccc3CCc3ccccc3)n2)c1,6.1
11,Cc1ccc(-c2ccnc(-c3cccc(-c4ccccn4)n3)c2)cc1,6.1
12,N=c1n(CCC2CCCCC2)nnn1Cc1ccccc1,6.1
13,Cc1ccc(C(=O)Nc2nnc(-c3ccccc3Cl)o2)cc1,6.1
14,c1cc(COc2ccc(C3=NCCN3)cc2)nc(COc2ccc(C3=NCCN3)cc2)c1,6.1
15,COc1cc(Nc2ccccc2)ccc1NS(=O)(=O)c1c(C)noc1C,2.9
16,N=C(N)c1ccc(CCN2CCC(c3nc(COCC(F)(F)F)c(-c4ccc(F)cc4)o3)CC2)cc1.O=C(O)C(F)(F)F.O=C(O)C(F)(F)F,8.2
17,Cc1n[nH]c(C)c1S(=O)(=O)Nc1ccc2c[nH]nc2c1,6.2
18,Brc1ccc(-c2noc(C3CCCNC3)n2)cc1 (stereo unspecified),6.2
19,O=C1NN=C(c2ccc3c(c2)OCO3)N[C@H]1Cc1c[nH]c2ccccc12,6.2

row,Compound,MIC90 [µM]
1,Cc1ccc(C2(c3ccc(C)cc3)NC(=O)N(CC(=O)N3CCC(Cc4ccccc4)CC3)C2=O)cc1,6.2
2,O=C(Nc1nc(CN2CCCCC2)cs1)c1ccccc1OCc1ccc(F)cc1,6.2
3,CC(C)c1ccc(NC(=O)c2ccc(C(=O)NC3CCCNC3)cc2)cc1 (stereo unspecified),6.2
4,Cc1cc(Oc2cccc3[nH]ccc23)nc(N2CCNCC2)n1,6.2
5,Cc1nc2ccccn2c1C(=O)Nc1ccc(C(C)(C)C)cc1,4.9
6,COc1cc2c(cc1OC)C(c1ccccc1)N(C(=O)c1nn(C)c(=O)c3ccccc13)CC2 (stereo unspecified),6.3
7,FC(F)(F)c1ccccc1C1CCN(Cc2[nH]nc3ccccc23)CC1,6.3
8,O=C(Nc1nc2c(F)cc(F)cc2s1)C1CCCN1S(=O)(=O)c1cccs1 (stereo unspecified),6.3
9,c1ccc(-c2nnc(Sc3ccnc(N4CCN(c5ccncc5)CC4)n3)n2CCCN2CCOCC2)cc1,6.3
10,NC(=O)c1nnc(Sc2ccnc(N3CCN(c4ccncc4)CC3)n2)n1-c1ccccc1,6.3
11,O=C(Nc1cccc(Cl)c1)NC12CC3CC(CC(C3)C1)C2,6.3
12,O=C(CCc1cccs1)Nc1nc(-c2ccccn2)cs1,6.4
13,CCOc1ncccc1C(=O)Nc1ccccc1Nc1ccccc1,6.4
14,Cc1cc(Cl)cc2nc(N3CCCNCC3)oc12,6.4
15,COc1ccc(-c2nc(CCNC(=O)c3ccc(OC)cc3OC)cs2)cc1,6.4
16,Cc1ccc(Cl)c2sc(N(CCN(C)C)C(=O)CS(=O)(=O)c3ccc(F)cc3)nc12,6.4
17,Cc1noc(C)c1COc1ccc(C(=O)N2CCCCC2c2nc3ccccc3s2)cc1 (stereo unspecified),6.4
18,O=C(CCc1nc2ccccc2oc1=O)N[C@@H]1CCC(=O)N[C@H]1c1ccsc1,6.4
19,c1ccc(COc2ccc(CN3CCC4(CC3)OCCc3sccc34)cc2)nc1,6.4

row,Compound,MIC90 [µM]
1,CCCCc1cc(OC)c(C(=O)Nc2cccc3c2CCN(C)C3)cc1Cl,6.4
2,O=C(NC1CCCCC1)c1cc2cc(OC(F)(F)F)ccc2[nH]1,6.4
3,COc1ccc(-c2cc3nccc(C4CCCNC4)n3n2)cc1 (stereo unspecified),6.5
4,O=C(c1ccc(-c2cccc(OCCN(CCO)C3CCCCC3)c2)cc1)N1CCCC1,6.5
5,CC(C)c1ccc(OCC(=O)NNC(=O)c2ccncc2)cc1,6.5
6,Cc1cc(C)n(Cc2ccc(C(=O)NC3CCC(C(C)(C)C)CC3)cc2)n1 (stereo unspecified),6.5
7,O=C(CSc1nnc(-c2ccccc2)o1)Nc1nc(-c2ccccn2)cs1,6.6
8,O=C(NCc1ccccc1F)N1CCN(Cc2ccc(Br)s2)CC1,9.4
9,O=C(N[C@@H](Cc1ccccc1)C(=O)Nc1ccccc1N1CCOCC1)c1cccs1,3.2
10,CSc1ccc(-c2nnc(NC(=O)c3ccc(Cl)s3)o2)cc1,6.5
11,OC1(c2ccccc2)Oc2ccccc2N=C1c1ccccc1 (stereo unspecified),4.8
12,Fc1ccc2[nH]c(-c3cccc(-c4ccc(CNCCN5CCNCC5)cc4)c3)nc2c1,6.7
13,CCCc1cc(-c2nc(-c3ccc(OC)c(OC)c3)cs2)ccn1,6.7
14,Clc1ccc2c(N3CCNCC3)ccnc2c1,6.5
15,Cc1cc(NC(=O)c2cc(Br)ccc2Cl)n(-c2nc(C)c(C)c(=O)[nH]2)n1,5.3
16,Clc1ccc(Nc2nc(-c3ccccn3)cs2)nc1,1.2
17,Cc1ccc2sc(N(CCCn3ccnc3)C(=O)c3ccco3)nc2c1C,5.6
18,Cc1ccc2c(NC(=O)Nc3ccc(N(C)C)cc3)cc(C)nc2c1,5.8

# Source: ChEMBL document CHEMBL2095176, “GSK Tuberculosis Screening Data”
